According to patent US10806726B2, “Methods of using indazole-3-carb oxamides and their use as Wnt/B-catenin signaling pathway inhibitors” (Samumed, LLC, priority 2016, dated 2020):
Like-named read-outs stand apart in the source and are kept apart here.

Tests used:
[1] = tested on: IL6 production in THP-1 cells; assay: Cytokine Production Assay, LPS-induced IL6 in THP-1 cells; type: cell-based; conditions: Homo sapiens; THP-1, LPS 500 ng/ml 22 hours, 2 independent assays; read-out: average EC50, inhibition of IL6 production
Protocol: THP-1 cells were cultured in basal media with 1% FBS for 24 hours before the start of the assay. THP-1 cells were plated at 6×10e^4 cells/well and treated with DMSO (vehicle control) or compound 175 at 10 μM highest test concentration and 2 to 3.5-fold serial dilutions up to 8 concentrations (10, 3.5, 1, 0.5, 0.1, 0.035, 0.01, 0.005 μM). For the TNFα assay, 50 ng/mL of LPS was added to the wells after 2 hours to induce cytokine production, and cells were incubated for 5 hours at 37° C. For the IL6 assay, 500 ng/ml of LPS was added after 2 hours and cells were incubated for 22 hours at 37° C. Plates were spun in a centrifuge for 1 minute at 10,000 rpm and supernatants were collected for ELISA. Supernatants were diluted 1:1 for the TNFα assay and 1:4 for the IL6 assay using the assay medium. ELISA was performed using Human TNF-α ELISA MAX™ Deluxe (Catalog #430204, Biolegend, San Diego, Calif.) and Human IL-6 ELISA MAX™ Deluxe (Catalog #430504, Biolegend, San Diego, Calif.) kits. […] Following several washes to remove unbound avidin-HRP, the TMB substrate was added and the plates were read on the Cytation 3 plate reader (Biotek Inc., Winooski, Vt.) at an absorbance of 450 nm with correction at 570 nm. […] Inhibition profile and EC50 was calculated using Prism 5 (GraphPad Software Inc, La Jolla, Calif., USA). […]

[2] = Pharmacokinetics after single topical application in rats (plasma, tendon, skin); type: in vivo, rat; conditions: for AUC(0-t) / Cmax / Tmax: topical or ocular; for Kp: tendon and plasma
Protocol: The compound 175 formulation was applied once topically to each ankle of the hind leg of each animal at 60 μL volume (30 μL/cm^2×2 cm^2) over the area of the Achilles tendon.
Blood samples (˜0.5 mL) were collected via cardiac puncture, into tubes containing K2EDTA as anticoagulant, at 1, 2, 4, 7 and 24 hours post-dose from 2 animals per timepoint (n=2). Plasma was harvested and frozen at −80° C. for bioanalysis.
The Achilles tendons from both ankles were collected following euthanasia at 1, 2, 4, 7 and 24 hours post-dose from 2 animals per timepoint (n=4) from all groups. Skin tissue samples were collected from the dose-site at 7 and 24 hours post-dose from 2 animals per timepoint (n=4) in Group 2. Tissues were frozen at −80° C. for bioanalysis. Blood and tissue collection schedule is outlined in Table 8 below.
Skin tissue samples were processed using the following procedures: 1) Weigh tissue and homogenize using cryoPrep (Covaris); 2) Add 9× volume of Acetonitrile:Methanol (70:30) and vortex for one hour; 3) Aliquot 100 μL of tissue homogenate into 96 microtube polypropylene plate; 4) Add 10 μL of working standard to each standard; 5) Add 10 μL of methanol in all samples and blanks; 6) Add 10 μL of internal standard (IS) to all tubes except blanks; 7) Spin in centrifuge at 3000 rpm for 10 minutes; and 8) Transfer 100 μL of supernatant into 96-well plate containing 150 μL of water. Cap and vortex for LC/MS/MS analysis.
The chromatograms of the samples were integrated and calibrated using Analyst 1.6.2 (AB Sciex, Redwood City, Calif.). Linear regression with 1/x^2 weighting and internal standardization was used for standard calibration, with an acceptance criterion of ±30% of nominal standard concentration. The lower limit of quantitation (LLOQ) was 2.00 ng/mL (plasma), 6.00 ng/g (tendon) and 25.0 ng/g (skin). Pharmacokinetic parameters were estimated by noncompartmental analysis from individual concentration versus time profiles using Pheonix WinNonlin version 6.3 (Certara, Inc., Princeton, N.J.). The time to maximum concentration (tmax) and the maximum concentration (Cmax) were determined based on measured plasma and tissue concentrations. The area under the curve (AUC0-last) was calculated using the linear trapezoidal rule.

[3] = Tendon, Group 1, 1 mg/mL, 1% BA, single topical
[4] = Tendon, Group 2, 10 mg/mL, 1% BA, single topical
[5] = Tendon, Group 3, 10 mg/mL, no preservative (0.5% Tween 80), single topical
[6] = male, Sprague Dawley, rat, plasma, 1 mg/mL, Plasma, Group 1, 1 mg/mL, 1% BA, single topical
[7] = male, Sprague Dawley, rat, plasma, 10 mg/mL, Plasma, Group 2, 10 mg/mL, 1% BA, single topical
[8] = male, Sprague Dawley, rat, plasma, 10 mg/mL, Plasma, Group 3, 10 mg/mL, no preservative (0.5% Tween 80), single topical
[9] = male, Sprague Dawley, rat, tendon, 1 mg/mL, Tendon, Group 1, 1 mg/mL, 1% BA, single topical
[10] = male, Sprague Dawley, rat, tendon, 10 mg/mL, Tendon, Group 2, 10 mg/mL, 1% BA, single topical
[11] = male, Sprague Dawley, rat, tendon, 10 mg/mL, Tendon, Group 3, 10 mg/mL, no preservative (0.5% Tween 80), single topical

## COc1ccc(NC(=O)c2n[nH]c3ccc(-c4cncc(CN5CCCCC5)c4)cc23)cn1 [compound 175, N-(6-Methoxypyridin-3-yl)-5-(5-(piperidin-1-ylmethyl)pyridin-3-yl)-1H-indazole-3-carboxamide]
[1]
  EC50: 356 to 629 nM
[2]; 10 mg/mL without BA (Tween 80) vs 10 mg/mL with BA
  plasma exposure of Group 3 relative to Group 2: ~0.2 ×
[2]; 10 mg/mL without BA vs 10 mg/mL with BA
  tendon exposure of Group 3 relative to Group 2: ~4 ×
[2]; 7 and 24 hours post-dose, Group 2
  skin concentration relative to tendon concentrations: roughly 1000 ×
[2]; Group 2 vs Group 1, formulations containing BA
  increase in tendon AUC(0-last) for a 10× dose-increment: 3.4 ×
[2]; Plasma, Group 1, 1 mg/mL, 1% BA, single topical
  last: 1.00 h
[2]; Plasma, Group 2, 10 mg/mL, 1% BA, single topical
  last: 7.00 h
[2]; Plasma, Group 3, 10 mg/mL, no preservative (0.5% Tween 80), single topical
  last: 7.00 h
[2]; Skin, Group 2, 10 mg/mL, 1% BA, single topical
  last: 24.0 h
[2]; [3]
  AUC(0-last): 2164 ng·h/g
  last: 24.0 h
[2]; [4]
  AUC(0-last): 7270 ng·h/g
  last: 24.0 h
[2]; [5]
  AUC(0-last): 28077 ng·h/g
  last: 24.0 h
[2]; [6]
  AUC(0-t): 0.65 ng·h/mL
  Cmax: 1.3 ng/mL
  Tmax: 1 h
[2]; [7]
  AUC(0-t): 36.1 ng·h/mL
  Cmax: 10.6 ng/mL
  Tmax: 4 h
[2]; [8]
  AUC(0-t): 6.79 ng·h/mL
  Cmax: 1.94 ng/mL
  Tmax: 7 h
[2]; male, Sprague Dawley, rat, skin, 10 mg/mL, Skin, Group 2, 10 mg/mL, 1% BA, single topical
  Tmax: 7 h
[2]; male, Sprague Dawley, rat, skin, 10 mg/mL, Skin, Group 2, 10 mg/mL, 1% BA, above quantitation limit (AQL > 25000 ng/g), reported as estimated
  Cmax: 209000 ng/g
[2]; male, Sprague Dawley, rat, skin, topical, 7 hours post-dose, Group 2, 10 mg/mL containing BA, above quantitation limit, estimated
  concentration at 7 h: 209000 ng/g
[2]; male, Sprague Dawley, rat, skin, topical, 24 hours post-dose, Group 2, 10 mg/mL containing BA, above quantitation limit, estimated
  concentration at 24 h: 113000 ng/g
[2]; male, Sprague Dawley, rat, topical, 1 mg/mL, Tendon to plasma, Group 1, 1 mg/mL, 1% BA, read-out: Tissue/Plasma AUC Ratio
  Kp: 3330
[2]; male, Sprague Dawley, rat, topical, 10 mg/mL, Tendon to plasma, Group 2, 10 mg/mL, 1% BA, read-out: Tissue/Plasma AUC Ratio
  Kp: 202
[2]; male, Sprague Dawley, rat, topical, 10 mg/mL, Tendon to plasma, Group 3, 10 mg/mL without BA, read-out: Tissue/Plasma AUC Ratio
  Kp: 4140
[2]; male, Sprague Dawley, rat, topical, all dose groups, single topical administration, read-out: tendon to plasma ratios, range across groups
  Kp: 202 to 4140
[2]; [9]
  Cmax: 519 ng/g
  Tmax: 1 h
[2]; [10]
  Cmax: 1930 ng/g
  Tmax: 1 h
[2]; [11]
  Cmax: 7050 ng/g
  Tmax: 1 h
